According to patent publication US20250235545A1, “POLYPEPTIDE CONJUGATE AND USE THEREOF” (SHANGHAI CHIXI BIOMEDICAL TECHNOLOGY CO., LTD, priority 2024, published 2025):
Values after ≈ are worked out from the molar mass of the structure shown. Like-named read-outs stand apart in the source and are kept apart here.

Experiments:
[1] = tested on: colo320 (colorectal cancer tissue); experiment: cells; type: cell-based; conditions: CCK8, 48 h, Table 6
Description: (§1) Different types of cells were cultured with complete media (RPMI1640 (DMEM high sugar medium)+10% fetal bovine serum+1×P/S+sodium pyruvate 1 mM solution) in an incubator at 37° C. and 5% CO2 until the cells grew to a sufficient number, and the cells were collected, centrifuged at 1,000 g for 5 min, resuspended with an appropriate volume of a 10% RMPI1640 (DMEM high sugar medium) medium and adjusted to an appropriate density. In a 96-well culture plate, 100 μL of cell culture fluid containing different concentrations of drugs was added, control wells (0.1% DMSO) with only corresponding drug solvents without drugs, as well as blank wells (Blank) with only the medium but without cells were set, and three parallel wells were set in each group. After that, the cells after cell counting were inoculated onto 96-well culture plates, with 100 μL of cell suspension per well, and an inoculation concentration of the cells was 5,000 cells (100 μL)/well. The plates were then cultured in a CO2 (5%) incubator at 37° C. for 48 h. After 48 h, 10 μL of a cell proliferation staining reagent (CCK8) was added to each well, the plates were incubated in a cell incubator for around 2 h, and an absorbance at 450 nm was detected.
(§2) Cell survival rates and median inhibitory concentrations (IC50) of the drugs on the cells were calculated.

[2] = tested on: sarcoma SJSA-1 tumor model; conditions: 5 mg/kg once a week for three weeks
Description: Test objective: To investigate the antitumor efficacy of the above compounds in an animal tumor model of sarcoma SJSA-1.
(§3) Test drug: Polypeptide conjugate, Irinotecan, Belotecan and normal saline control group.
(§4) Test animals: 6-8 weeks old BALB/c mice, all female.
(§5) SJSA-1 cells were purchased from ATCC and cultured in a DMEM medium containing 10% fetal bovine serum at 37° C. in 5% CO2. Passaging was performed every three days, and cells within 15 generations were used. 2×10^7 corresponding cells were injected into right chests of nude mice subcutaneously. After a volume of the tumors reached at least 100 mm^3, the mice were grouped randomly, with three mice in each group. Then treatment was started, and the day when the treatment was started was the first day. […] The control group was administered with normal saline. Administration was performed once a week for three weeks.
as §5

[3] = MTD determination in mice (Examples 27, 36, 44); type: in vivo; conditions: mice, monitored for 14 d
Description: Test animals: 6-8 weeks old mice, all female; mice were grouped randomly, with six mice in each group, administered with drugs at different concentration gradients separately and monitored for 14 d. A mouse was euthanized at a loss of 20% of its initial weight and deemed to have died of poisoning.

[4] = tested on: SKBR3 (breast cancer tissue); experiment: cells; type: cell-based; conditions: CCK8, 48 h; for IC50: Homo sapiens, SK-BR-3
Description: as §1, with “serum+1XP/S+sodium” for “serum+1×P/S+sodium”, “counted.” for “adjusted to an appropriate density.”
(§6) Cell survival rates and median inhibitory concentrations of the drugs on the cells were calculated.
as §1, §2

[5] = tested on: A549 (non-small cell lung cancer); experiment: cells; type: cell-based; conditions: CCK8, 48 h; for IC50: Homo sapiens, A549
Description: as §1, with “serum+1XP/S+sodium” for “serum+1×P/S+sodium”, “counted.” for “adjusted to an appropriate density.”
as §6, §1, §2

[6] = tested on: SJSA-1 (sarcoma tissue); experiment: cells; type: cell-based; conditions: CCK8, 48 h; for IC50: Homo sapiens, SJSA-1
Description: as §1, with “serum+1XP/S+sodium” for “serum+1×P/S+sodium”, “counted.” for “adjusted to an appropriate density.”
as §6, §1, §2

[7] = tested on: A2780 (ovarian cancer); experiment: cells; type: cell-based; conditions: CCK8, 48 h; for IC50: Homo sapiens, A2780
Description: as §1, with “serum+1XP/S+sodium” for “serum+1×P/S+sodium”, “counted.” for “adjusted to an appropriate density.”
as §6, §1, §2

[8] = tested on: colo320 colorectal cancer tumor model
Description: Test objective: To investigate the antitumor efficacy of the above compounds in an animal tumor model of colo320 colorectal cancer.
as §3, §4
as §5, with “Passaging” for “SJSA-1 cells were purchased from ATCC and cultured in a DMEM medium containing 10% fetal bovine serum at 37° C. in 5% CO2. Passaging”, “used. 7.5×10^6” for “used. 2×10^7”, “least 120” for “least 100”, “for four” for “for three”

[9] = 5 mg/kg once a week for four weeks, Table 3
[10] = 5 mg/kg once a week for four weeks, Table 8
[11] = Table 13 (Example 42), dose 5 mg/kg, once a week for four weeks, BALB/c mice
[12] = Table 14 (Example 43), dose 5 mg/kg, once a week for four weeks, BALB/c mice

SMILES	IC50 Colorectal cancer tissue (colo320) [1]	Mouse weight (%) ([2]; Table 2)	SJSA-1 (sarcoma tissue) mean tumor volume (mm^3) ([2]; Table 2)	SJSA-1 (sarcoma) Growth rate (%) ([2]; Table 2)	Mouse weight (%) ([2]; Table 7)	SJSA-1 (sarcoma tissue) growth rate (%) ([2]; Table 7)	SJSA-1 (sarcoma tissue) mean tumor volume (mm^3) ([2]; Table 7)	MTD ([3]; Table 4)	MTD ([3]; Table 9)	IC50 SKBR3 (breast cancer tissue) ([4]; Table 1)	IC50 Breast cancer tissue (SKBR3) ([4]; Table 6)	IC50 A549 (non-small cell lung cancer) ([5]; Table 1)	IC50 Non-small cell lung cancer tissue (A549) ([5]; Table 6)	IC50 SJSA-1 (sarcoma tissue) ([6]; Table 1)	Mouse weight (%) [8, 9]	colo320 (colorectal cancer cell) growth rate (%) [8, 9]	colo320 (colorectal cancer cell) mean tumor volume (mm^3) [8, 9]	Mouse weight (%) [8, 10]	colo320 (colorectal cancer cell) growth rate (%) [8, 10]	colo320 (colorectal cancer cell) mean tumor volume (mm^3) [8, 10]	other results
CCCNCCc1c2c(nc3ccccc13)-c1cc3c(c(=O)n1C2)COC(=O)[C@]3(O)CC [D3]	0.040 µg/mL (≈ 0.0923 µM)	−5%	1378.4 mm^3	1192.71%	−5%	1192.71%	1378.4 mm^3	25 mg/kg	25 mg/kg	0.049 µg/mL (≈ 0.113 µM)	0.049 µg/mL (≈ 0.113 µM)	0.026 µg/mL (≈ 0.06 µM)	0.026 µg/mL (≈ 0.06 µM)	0.029 µg/mL (≈ 0.0669 µM)	+7%	872.19%	966 mm^3	+7%	872.19%	966 mm^3	IC50 Sarcoma tissue (SJSA-1) ([6]; Table 6): 0.029 µg/mL (≈ 0.0669 µM); IC50 A2780 (ovarian cancer) ([7]; Table 1): 0.021 µg/mL (≈ 0.0484 µM); IC50 Ovarian cancer tissue (A2780) ([7]; Table 6): 0.021 µg/mL (≈ 0.0484 µM)
CCCCNCCc1c2c(nc3ccccc13)-c1cc3c(c(=O)n1C2)COC(=O)[C@]3(O)CC [D4]	0.078 µg/mL (≈ 0.174 µM)	−7%	1269.4 mm^3	1098.39%	−7%	1098.39%	1269.4 mm^3	30 mg/kg	30 mg/kg	0.076 µg/mL (≈ 0.17 µM)	0.076 µg/mL (≈ 0.17 µM)	0.043 µg/mL (≈ 0.0961 µM)	0.043 µg/mL (≈ 0.0961 µM)	0.054 µg/mL (≈ 0.121 µM)	+5%	945.77%	1047.5 mm^3	+5%	945.77%	1047.5 mm^3	IC50 Sarcoma tissue (SJSA-1) ([6]; Table 6): 0.054 µg/mL (≈ 0.121 µM); IC50 A2780 (ovarian cancer) ([7]; Table 1): 0.029 µg/mL (≈ 0.0648 µM); IC50 Ovarian cancer tissue (A2780) ([7]; Table 6): 0.029 µg/mL (≈ 0.0648 µM)
CC[C@@]1(O)C(=O)OCc2c1cc1n(c2=O)Cc2c-1nc1ccccc1c2CCNC(C)C [Belotecan, reference compound]	–	−9%	1253.2 mm^3	1084.38%	−9%	1084.38%	1253.2 mm^3	–	–	–	–	–	–	–	−9%	869.93%	963.5 mm^3	−9%	869.93%	963.5 mm^3	IC50 ([1]; Homo sapiens, COLO 320): 0.014 µg/mL (≈ 0.0323 µM); MTD ([3]; female, mouse, in vivo, Table 15 (Example 44), six per group, read-out: MTD): 15 mg/kg; MTD ([3]; female, mouse, in vivo, Table 4, read-out: MTD): 15 mg/kg; MTD ([3]; female, mouse, in vivo, Table 9, read-out: MTD): 15 mg/kg; IC50 ([4]; Table 1, read-out: IC50 SKBR3 (breast cancer tissue)): 9.8 ng/mL (≈ 0.0226 µM); IC50 ([4]; Table 6, read-out: IC50 Breast cancer tissue (SKBR3)): 9.8 ng/mL (≈ 0.0226 µM); IC50 ([5]; Table 1, read-out: IC50 A549 (non-small cell lung cancer)): 6.6 ng/mL (≈ 0.0152 µM); IC50 ([5]; Table 6, read-out: IC50 Non-small cell lung cancer tissue (A549)): 6.6 ng/mL (≈ 0.0152 µM); IC50 ([6]; Table 1, read-out: IC50 SJSA-1 (sarcoma tissue)): 2.1 ng/mL (≈ 0.00484 µM); IC50 ([6]; Table 6, read-out: IC50 Sarcoma tissue (SJSA-1)): 2.1 ng/mL (≈ 0.00484 µM); IC50 ([7]; Table 1, read-out: IC50 A2780 (ovarian cancer)): 4.4 ng/mL (≈ 0.0101 µM); IC50 ([7]; Table 6, read-out: IC50 Ovarian cancer tissue (A2780)): 4.4 ng/mL (≈ 0.0101 µM); Mouse weight (%) [8, 11]: −9%; colo320 (colorectal cancer cell) growth rate (%) [8, 11]: 869.93%; colo320 (colorectal cancer cell) mean tumor volume (mm^3) [8, 11]: 963.5 mm^3; Mouse weight (%) [8, 12]: −9%; colo320 (colorectal cancer cell) growth rate (%) [8, 12]: 869.93%; colo320 (colorectal cancer cell) mean tumor volume (mm^3) [8, 12]: 963.5 mm^3
